From patent publication US10214526B2, “Substituted pyrazolo[1,5-a]-pyridine-3-carboxamides and use thereof” (Bayer Pharma Aktiengesellschaft, priority 2015, dated 2019)
Where a name gives a salt, the structure may show the parent alone.

Tested on: recombinant guanylate cyclase reporter cell line
Assay: Effect on a recombinant guanylate cyclase reporter cell line
Format: cell-based
Settings: in some cases mean values from individual determinations
Procedure: B-2. Effect on a Recombinant Guanylate Cyclase Reporter Cell Line
The cellular activity of the compounds according to the invention is determined using a recombinant guanylate cyclase reporter cell line, as described in F. Wunder et al., Anal. Biochem. 339, 104-112 (2005).
Representative MEC values (MEC=minimum effective concentration) for the compounds of the invention are shown in the table below (in some cases as mean values from individual determinations): […]

First: Cc1cc(OCc2c(F)cccc2F)n2nc(C)c(C(=O)N[C@@](C)(CO)c3nnc(C)s3)c2c1 [Example 1, 7-[(2,6-Difluorobenzyl)oxy]-N-[(2S)-1-hydroxy-2-(5-methyl-1,3,4-thiadiazol-2-yl)propan-2-yl]-2,5-dimethylpyrazolo[1,5-a]pyridine-3-carboxamide trifluoroacetate]
Second: Cc1cc(OCc2c(F)cccc2F)n2nc(C)c(C(=O)NC(C)(CO)c3nnn(C(F)F)n3)c2c1 (racemic) [Example 2, rac-7-[(2,6-Difluorobenzyl)oxy]-N-{2-[2-(difluoromethyl)-2H-tetrazol-5-yl]-1-hydroxypropan-2-yl}-2,5-dimethylpyrazolo[1,5-a]pyridine-3-carboxamide]
The “MEC (minimum effective concentration)” value of the first is 2-fold higher: 0.20 µM for the first, 0.10 µM for the second.

Going from `Cc1cc(OCc2c(F)cccc2F)n2nc(C)c(C(=O)NCC(C)(N)CC[Si](C)(C)C)c2c1` (single isomer, unassigned; enantiomer a) [Example 4, ent-N-[2-Amino-2-methyl-4-(trimethylsilyl)butyl]-7-[(2,6-difluorobenzyl)oxy]-2,5-dimethylpyrazolo[1,5-a]pyridine-3-carboxamide (Enantiomer A)] to `[2H]C([2H])([2H])CC(C)(N)CNC(=O)c1c(C)nn2c(OCc3c(F)cccc3F)cc(C)cc12` (single isomer, unassigned; enantiomer a) [Example 3, ent-N-[2-Amino-2-methyl(4,4,4,4-^2H3)butyl]-7-[(2,6-difluorobenzyl)oxy]-2,5-dimethylpyrazolo[1,5-a]pyridine-3-carboxamide (Enantiomer A)], the “MEC (minimum effective concentration)” value falls from 0.53 µM to 0.30 µM (1.8-fold).

For `Cc1cc(OCc2c(F)cccc2F)n2nc(C)c(C(=O)NCC(C)(N)CC[Si](C)(C)C)c2c1` (single isomer, unassigned; enantiomer b) [Example 5, ent-N-[2-Amino-2-methyl-4-(trimethylsilyl)butyl]-7-[(2,6-difluorobenzyl)oxy]-2,5-dimethylpyrazolo[1,5-a]pyridine-3-carboxamide (Enantiomer B)], the “MEC (minimum effective concentration)” value was 0.30 µM.
